By pIC50 is commonly meant the IC50 on a negative log10 scale, so that one unit is a factor of ten. Low values mean a high IC50, high ones a low IC50. For orientation: half-life means the time needed for the level to fall by half in the phase considered.

Drawing on ChEMBL document CHEMBL1157712, “Hit to lead account of the discovery of bisbenzamide and related ureidobenzamide inhibitors of Rho kinase” (J Med Chem, 2010), this text covers residual activity, IC50 and half-life for two compounds.

pIC50: −log10 of the molar value.

A short description of data set [1]: Inhibition of PKA at 3 uM relative to control; values are per cent of control.
Data set [2] has as its target Serine/threonine-protein kinase MRCK beta (Homo sapiens) (UniProt Q9Y5S2). The data set is described as follows: Inhibition of CDC42BPB.
Data set [3] deals with [Pyruvate dehydrogenase (acetyl-transferring)] kinase isozyme 1, mitochondrial (Homo sapiens) (UniProt Q15118). Kind of data set: Inhibition of PDK1 at 3 uM relative to control; values are per cent of control.
Data set [4] deals with Myosin light chain kinase, smooth muscle (Homo sapiens) (UniProt Q15746). Kind of data set: Inhibition of SMMLCK at 3 uM relative to control; values are per cent of control.
Data set [5] addresses MAP kinase-activated protein kinase 2 (Homo sapiens) (UniProt P49137). Kind of data set: Inhibition of MAPKAPK2 at 3 uM relative to control; values are per cent of control.
In data set [6] the target is T1, Serine/threonine-protein kinase N2 (Homo sapiens, UniProt Q16513).
The target in data set [7] is Serine/threonine-protein kinase Nek7 (Homo sapiens) (UniProt Q8TDX7). Kind of data set: Inhibition of NEK7 at 3 uM relative to control; values are per cent of control.
Chain of Serine/threonine-protein kinase Nek7 (Homo sapiens) (Q8TDX7 whole entry, looked up): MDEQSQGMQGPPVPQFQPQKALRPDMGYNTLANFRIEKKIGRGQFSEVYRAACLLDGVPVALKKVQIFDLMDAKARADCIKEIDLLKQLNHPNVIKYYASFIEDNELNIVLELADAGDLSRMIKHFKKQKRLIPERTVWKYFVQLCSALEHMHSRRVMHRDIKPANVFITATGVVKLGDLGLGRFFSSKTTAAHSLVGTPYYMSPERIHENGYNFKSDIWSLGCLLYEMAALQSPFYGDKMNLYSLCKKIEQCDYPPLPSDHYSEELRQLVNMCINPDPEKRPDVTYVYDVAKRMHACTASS
In data set [8] the target is Mitogen-activated protein kinase 10 (Homo sapiens) (UniProt P53779). The data set is described as follows: Inhibition of JNK3a1 at 3 uM relative to control; values are per cent of control.
Chain of Mitogen-activated protein kinase 10 (Homo sapiens) (P53779 whole entry): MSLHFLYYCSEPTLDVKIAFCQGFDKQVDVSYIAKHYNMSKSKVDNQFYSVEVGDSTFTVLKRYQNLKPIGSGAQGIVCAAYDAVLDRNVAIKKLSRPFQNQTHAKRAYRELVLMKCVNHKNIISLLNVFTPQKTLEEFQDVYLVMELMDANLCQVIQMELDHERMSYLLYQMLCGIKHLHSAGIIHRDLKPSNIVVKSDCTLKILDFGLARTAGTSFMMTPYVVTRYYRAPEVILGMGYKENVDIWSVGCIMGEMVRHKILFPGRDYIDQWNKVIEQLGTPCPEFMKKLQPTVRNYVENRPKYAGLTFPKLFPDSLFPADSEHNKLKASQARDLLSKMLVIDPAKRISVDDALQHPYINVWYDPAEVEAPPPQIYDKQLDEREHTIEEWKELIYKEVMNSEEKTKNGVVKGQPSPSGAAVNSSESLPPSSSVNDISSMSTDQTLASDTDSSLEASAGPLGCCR
The target in data set [9] is Calcium/calmodulin-dependent protein kinase type 1 (Homo sapiens) (UniProt Q14012). Kind of data set: Inhibition of CAMK1 at 3 uM relative to control; values are per cent of control.
For data set [10], the target named is Glycogen synthase kinase-3 beta (Homo sapiens) (UniProt P49841). Kind of data set: Inhibition of GSK3-beta at 3 uM relative to control; values are per cent of control.
Chain of Glycogen synthase kinase-3 beta (Homo sapiens) (P49841 whole entry, looked up, canonical isoform): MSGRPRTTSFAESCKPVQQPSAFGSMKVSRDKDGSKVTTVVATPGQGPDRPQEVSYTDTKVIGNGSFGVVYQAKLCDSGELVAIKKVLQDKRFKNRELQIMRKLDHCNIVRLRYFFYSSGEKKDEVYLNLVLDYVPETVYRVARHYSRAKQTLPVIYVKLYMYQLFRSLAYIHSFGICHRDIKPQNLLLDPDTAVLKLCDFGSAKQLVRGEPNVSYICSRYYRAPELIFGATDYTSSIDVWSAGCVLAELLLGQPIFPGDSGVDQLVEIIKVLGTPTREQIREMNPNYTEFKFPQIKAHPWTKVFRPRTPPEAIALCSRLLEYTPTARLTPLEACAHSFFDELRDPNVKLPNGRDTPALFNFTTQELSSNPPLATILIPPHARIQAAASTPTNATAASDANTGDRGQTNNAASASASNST
The next data set relates to ROCK1 (Homo sapiens). Kind of data set: Inhibition of ROCK1.
Data set [11] deals with T1, Serine/threonine-protein kinase N2. The data set is described as follows: Inhibition of PRK2; values are per cent of control.
Data set [12] in a line: Inhibition of PKBD at 3 uM relative to control; values are per cent of control.
A short description of data set [13]: Inhibition of AMPK at 3 uM relative to control; values are per cent of control.
For data set [14], the target named is Death-associated protein kinase 1 (Homo sapiens) (UniProt P53355). The note with it: 3 to 6 uM.
Description: Inhibition of DAPK1 at 3 to 6 uM relative to control
Data set [15] concerns the target Tyrosine-protein kinase JAK3 (Homo sapiens) (UniProt P52333). To be noted: 3 to 6 uM.
Description: Inhibition of JAK3 at 3 to 6 uM relative to control
Data set [16] deals with Serine/threonine-protein kinase D1 (Homo sapiens) (UniProt Q15139). The note with it: 3 to 6 uM.
Description: Inhibition of PKD1 at 3 to 6 uM relative to control
The target of data set [17] is Vascular endothelial growth factor receptor 1 (Homo sapiens, UniProt P17948). The data set is described as follows: Inhibition of VEGFR1.
The target in data set [18] is Proto-oncogene tyrosine-protein kinase Src (Homo sapiens) (UniProt P12931). To be noted: 3 to 6 uM.
Description: Inhibition of SRC at 3 to 6 uM relative to control
Data set [19] addresses Insulin-like growth factor 1 receptor (Homo sapiens) (UniProt P08069). The note with it: 3 to 6 uM.
Description: Inhibition of IGF1R at 3 to 6 uM relative to control
For data set [20], the target named is Serine/threonine-protein kinase pim-2 (Homo sapiens, UniProt Q9P1W9). The data set is described as follows: Inhibition of PIM2.
Chain of Serine/threonine-protein kinase pim-2 (Q9P1W9 whole entry): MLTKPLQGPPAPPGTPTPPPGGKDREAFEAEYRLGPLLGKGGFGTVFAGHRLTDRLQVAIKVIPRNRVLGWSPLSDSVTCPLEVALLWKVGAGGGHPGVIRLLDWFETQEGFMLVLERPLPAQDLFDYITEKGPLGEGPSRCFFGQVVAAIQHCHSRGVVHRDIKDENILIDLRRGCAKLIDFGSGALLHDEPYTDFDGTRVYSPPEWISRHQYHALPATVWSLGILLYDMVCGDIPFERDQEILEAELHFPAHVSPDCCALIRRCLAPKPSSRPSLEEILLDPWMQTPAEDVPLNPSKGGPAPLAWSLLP
Data set [21] concerns the target Glycogen synthase kinase-3 beta (Homo sapiens) (UniProt P49841). To be noted: 3 to 6 uM.
Description: Inhibition of GSK3-beta at 3 to 6 uM relative to control
Data set [22] concerns the target Casein kinase I isoform alpha (Homo sapiens) (UniProt P48729). The note with it: 3 to 6 uM.
Description: Inhibition of CK1 at 3 to 6 uM relative to control
Data set [23] deals with Mitogen-activated protein kinase 8 (Homo sapiens) (UniProt P45983). The note with it: 3 to 6 uM.
Description: Inhibition of JNK1a1 at 3 to 6 uM relative to control
For data set [24], the target named is Epidermal growth factor receptor (Homo sapiens) (UniProt P00533). The note with it: 3 to 6 uM.
Chain of Epidermal growth factor receptor (Homo sapiens) (P00533 whole entry): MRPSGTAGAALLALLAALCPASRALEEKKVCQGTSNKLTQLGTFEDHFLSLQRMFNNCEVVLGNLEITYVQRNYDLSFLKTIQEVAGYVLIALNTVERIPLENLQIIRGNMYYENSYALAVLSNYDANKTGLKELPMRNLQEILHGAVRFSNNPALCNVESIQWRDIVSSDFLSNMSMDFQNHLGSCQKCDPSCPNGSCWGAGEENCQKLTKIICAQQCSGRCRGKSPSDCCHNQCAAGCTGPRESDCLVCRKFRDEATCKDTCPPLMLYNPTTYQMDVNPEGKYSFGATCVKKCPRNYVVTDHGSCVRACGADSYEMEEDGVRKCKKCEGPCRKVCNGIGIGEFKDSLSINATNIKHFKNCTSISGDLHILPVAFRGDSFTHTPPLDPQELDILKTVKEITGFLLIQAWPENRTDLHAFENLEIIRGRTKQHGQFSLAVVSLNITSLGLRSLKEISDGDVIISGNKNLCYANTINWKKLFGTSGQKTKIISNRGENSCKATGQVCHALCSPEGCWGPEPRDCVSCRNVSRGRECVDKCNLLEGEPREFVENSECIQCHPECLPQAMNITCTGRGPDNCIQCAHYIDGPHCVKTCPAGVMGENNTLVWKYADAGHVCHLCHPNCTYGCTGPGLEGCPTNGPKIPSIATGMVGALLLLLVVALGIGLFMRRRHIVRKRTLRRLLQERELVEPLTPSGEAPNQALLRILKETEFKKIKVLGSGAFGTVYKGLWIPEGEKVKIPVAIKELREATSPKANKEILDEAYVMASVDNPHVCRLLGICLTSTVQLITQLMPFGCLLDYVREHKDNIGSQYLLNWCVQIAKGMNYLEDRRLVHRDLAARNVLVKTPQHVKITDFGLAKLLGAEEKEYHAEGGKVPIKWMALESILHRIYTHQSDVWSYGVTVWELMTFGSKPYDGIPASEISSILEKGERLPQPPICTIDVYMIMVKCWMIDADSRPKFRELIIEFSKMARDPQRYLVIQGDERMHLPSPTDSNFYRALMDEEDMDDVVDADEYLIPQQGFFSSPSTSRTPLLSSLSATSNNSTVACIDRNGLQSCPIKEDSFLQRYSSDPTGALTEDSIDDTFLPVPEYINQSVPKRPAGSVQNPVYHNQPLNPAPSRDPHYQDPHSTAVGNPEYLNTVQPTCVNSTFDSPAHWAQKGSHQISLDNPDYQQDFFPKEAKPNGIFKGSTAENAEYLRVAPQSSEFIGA
Description: Inhibition of EGFR at 3 to 6 uM relative to control
Data set [25] concerns the target Serine/threonine-protein kinase PLK1 (Homo sapiens, UniProt P53350). The data set is described as follows: Inhibition of PLK.
Data set [26] addresses Serine/threonine-protein kinase Chk1 (Homo sapiens) (UniProt O14757). To be noted: 3 to 6 uM.
Description: Inhibition of CHK1 at 3 to 6 uM relative to control
The next data set addresses Caspase-1 (Homo sapiens) (UniProt P29466). To be noted: 3 to 6 uM.
The target in the next data set is Cytochrome P450 3A4 (Homo sapiens, UniProt P08684). Kind of data set: Inhibition of human CYP3A4 by LCMS/MS assay. Type of data set: ADME.
Data set [27] concerns the target Mitogen-activated protein kinase 15 (Homo sapiens) (UniProt Q8TD08). The note with it: 3 to 6 uM.
Description: Inhibition of ERK8 at 3 to 6 uM relative to control
Another data set concerns the target Cytochrome P450 2C9 (Homo sapiens, UniProt P11712). Kind of data set: Inhibition of human CYP2C9 by fluorescence assay. It counts as ADME.
Data set [28] addresses Discoidin domain-containing receptor 2 (Homo sapiens) (UniProt Q16832). To be noted: 3 to 6 uM.
Description: Inhibition of DDR2 at 3 to 6 uM relative to control
Another data set has as its target Cytochrome P450 2C19 (Homo sapiens, UniProt P33261). The data set is described as follows: Inhibition of human CYP2C19 by fluorescence assay. It counts as ADME.
Data set [29] can be described thus: Metabolic stability in human liver microsomes assessed as half life. It counts as ADME, Microsome. (Microsomes from liver hold many membrane-bound enzymes, among them those of drug oxidation.)
For data set [30], the target named is Mitogen-activated protein kinase kinase kinase 11 (Homo sapiens, UniProt Q16584). Kind of data set: Inhibition of MAP3K11.
Data set [31] addresses Ribosomal protein S6 kinase alpha-3 (Homo sapiens) (UniProt P51812). The note with it: 3 to 6 uM.
Description: Inhibition of RSK2 at 3 to 6 uM relative to control
Data set [32] deals with SRSF protein kinase 1 (Homo sapiens) (UniProt Q96SB4). To be noted: 3 to 6 uM.
Description: Inhibition of SRPK1 at 3 to 6 uM relative to control
Data set [33] concerns the target Serine/threonine-protein kinase mTOR (Homo sapiens) (UniProt P42345). To be noted: 3 to 6 uM.
Description: Inhibition of mTOR at 3 to 6 uM relative to control
Data set [34] deals with Protein kinase C alpha type (Homo sapiens) (UniProt P17252). To be noted: 3 to 6 uM.
Description: Inhibition of PKCalpha at 3 to 6 uM relative to control
Data set [35] concerns the target Dual specificity mitogen-activated protein kinase kinase 1 (Homo sapiens) (UniProt Q02750). The note with it: 3 to 6 uM.
Description: Inhibition of MKK1 at 3 to 6 uM relative to control
The next data set deals with Focal adhesion kinase 1 (Homo sapiens, UniProt Q05397). The data set is described as follows: Inhibition of PTK2.
Chain of Focal adhesion kinase 1 (Q05397 whole entry): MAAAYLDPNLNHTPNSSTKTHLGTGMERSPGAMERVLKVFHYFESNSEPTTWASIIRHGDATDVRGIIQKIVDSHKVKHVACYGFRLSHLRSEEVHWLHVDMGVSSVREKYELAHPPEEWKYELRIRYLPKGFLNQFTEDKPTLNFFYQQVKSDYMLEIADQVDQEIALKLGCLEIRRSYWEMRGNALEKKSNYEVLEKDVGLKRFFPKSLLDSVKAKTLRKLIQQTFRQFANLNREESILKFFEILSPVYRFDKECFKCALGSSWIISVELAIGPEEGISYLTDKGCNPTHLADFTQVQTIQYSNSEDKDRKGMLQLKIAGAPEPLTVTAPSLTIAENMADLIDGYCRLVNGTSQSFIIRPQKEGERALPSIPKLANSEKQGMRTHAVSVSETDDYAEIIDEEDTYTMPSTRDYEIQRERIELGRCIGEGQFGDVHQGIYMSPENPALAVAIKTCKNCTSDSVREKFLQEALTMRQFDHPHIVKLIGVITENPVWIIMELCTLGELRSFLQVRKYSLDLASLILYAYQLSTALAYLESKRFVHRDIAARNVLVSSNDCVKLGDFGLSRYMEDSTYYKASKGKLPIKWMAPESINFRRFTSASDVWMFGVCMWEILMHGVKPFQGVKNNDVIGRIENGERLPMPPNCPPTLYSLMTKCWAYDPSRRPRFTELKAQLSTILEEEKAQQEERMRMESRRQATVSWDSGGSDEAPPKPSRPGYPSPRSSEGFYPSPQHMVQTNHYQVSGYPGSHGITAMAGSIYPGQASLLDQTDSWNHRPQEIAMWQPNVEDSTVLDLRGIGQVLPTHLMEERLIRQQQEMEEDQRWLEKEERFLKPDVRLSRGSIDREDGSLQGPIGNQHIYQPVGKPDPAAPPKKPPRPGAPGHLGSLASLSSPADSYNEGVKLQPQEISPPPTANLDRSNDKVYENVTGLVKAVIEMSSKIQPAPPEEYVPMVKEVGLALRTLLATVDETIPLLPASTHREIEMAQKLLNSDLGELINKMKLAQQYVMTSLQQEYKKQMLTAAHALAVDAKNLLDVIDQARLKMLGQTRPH
The target of data set [36] is Mitogen-activated protein kinase 10 (Homo sapiens) (UniProt P53779). The note with it: 3 to 6 uM.
Description: Inhibition of JNK3a1 at 3 to 6 uM relative to control
The target in data set [37] is Cyclin-dependent kinase 2 (Homo sapiens) (UniProt P24941). To be noted: 3 to 6 uM.
Description: Inhibition of CDK2 at 3 to 6 uM relative to control

Chain of Caspase-1 (Homo sapiens) (P29466 120-297 limits assumed): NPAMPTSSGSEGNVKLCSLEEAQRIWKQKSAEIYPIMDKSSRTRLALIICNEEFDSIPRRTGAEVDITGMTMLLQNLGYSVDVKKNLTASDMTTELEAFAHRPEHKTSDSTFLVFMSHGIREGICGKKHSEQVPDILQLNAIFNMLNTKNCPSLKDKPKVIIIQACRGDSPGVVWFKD
Chain of Caspase-1 (Homo sapiens) (P29466 317-404 limits assumed): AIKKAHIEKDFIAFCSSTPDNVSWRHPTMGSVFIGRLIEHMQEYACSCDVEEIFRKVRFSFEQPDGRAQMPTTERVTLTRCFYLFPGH
Chain of Mitogen-activated protein kinase 15 (Homo sapiens) (Q8TD08 whole entry): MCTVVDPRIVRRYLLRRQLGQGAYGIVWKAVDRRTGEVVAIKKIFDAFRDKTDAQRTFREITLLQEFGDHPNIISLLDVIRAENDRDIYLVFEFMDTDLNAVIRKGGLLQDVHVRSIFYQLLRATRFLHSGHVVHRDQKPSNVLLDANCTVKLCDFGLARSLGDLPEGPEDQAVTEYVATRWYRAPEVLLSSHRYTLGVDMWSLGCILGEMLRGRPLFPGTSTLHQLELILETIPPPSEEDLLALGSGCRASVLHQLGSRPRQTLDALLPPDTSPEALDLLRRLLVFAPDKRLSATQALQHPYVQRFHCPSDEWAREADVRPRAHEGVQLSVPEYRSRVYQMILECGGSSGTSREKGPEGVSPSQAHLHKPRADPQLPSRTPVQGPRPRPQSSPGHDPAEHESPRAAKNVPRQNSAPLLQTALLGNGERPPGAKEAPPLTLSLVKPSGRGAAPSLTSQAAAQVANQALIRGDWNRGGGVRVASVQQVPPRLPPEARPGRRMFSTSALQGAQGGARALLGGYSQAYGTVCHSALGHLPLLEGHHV
Chain of Casein kinase I isoform alpha (Homo sapiens) (P48729 2-337 limits assumed): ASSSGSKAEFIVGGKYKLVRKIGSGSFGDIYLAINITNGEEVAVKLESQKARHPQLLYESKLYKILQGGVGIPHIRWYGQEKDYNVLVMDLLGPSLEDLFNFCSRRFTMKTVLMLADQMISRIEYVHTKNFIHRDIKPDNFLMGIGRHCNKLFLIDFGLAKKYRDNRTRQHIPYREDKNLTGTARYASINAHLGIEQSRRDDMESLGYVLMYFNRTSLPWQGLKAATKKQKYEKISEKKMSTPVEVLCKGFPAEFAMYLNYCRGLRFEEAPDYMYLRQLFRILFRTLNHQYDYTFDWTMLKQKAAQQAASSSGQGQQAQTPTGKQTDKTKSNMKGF
Description for Caspase-1 (Homo sapiens): Inhibition of ICE at 3 to 6 uM relative to control

Regarding `NC(=O)c1ccc(NC(=O)NCc2cccc(C(=O)Nc3ccc4c(c3)CNCC4)c2)cc1`, the residual activity in [1], in data set [3], in [4], in [5], in data set [7] and in data set [8] was > 50% each time. Moreover, the residual activity was > 50% in data set [9]; > 50% in data set [10]; 33% in data set [11]; > 50% in [12]; > 50% in [13]. The pIC50 in [2] is < 5.30; in data set [6], 6.11; in the data set with ROCK1 (Homo sapiens), 8.22.
For the compound `COc1ccc(C(=O)NCc2cccc(C(=O)Nc3ccc4c(c3)CNCC4)c2)cc1OC`, the residual activity in data set [14], in [15], in data set [16], in data set [18], in data set [19] and in [21] was > 50% each time. Besides, the residual activity (in data set [22]; in [23]; in data set [24]; in data set [26]; at Caspase-1 (Homo sapiens); in data set [27]) was > 50% throughout. The residual activity in [28], in data set [31], in [32], in data set [33], in data set [34] and in [35] was > 50% each time. In addition, the residual activity in [36] and in data set [37] was > 50% throughout. The pIC50 is < 5.00 in data set [17]; < 5.00 in [20]; < 5.00 in data set [25]; < 4.52 at Cytochrome P450 3A4; < 4.52 against Cytochrome P450 2C9; < 4.52 against Cytochrome P450 2C19. The negative-log IC50 (pIC50) (in data set [30]; on Focal adhesion kinase 1) was < 5.00 throughout. In addition, the half-life in [29] came out at 2.43 h.
